{"source": "patent US20230181905A1", "about": "“Systems, Devices, and Methods for Enhancing the Neuroprotective Effects of Non-Invasive Gamma Stimulation with Pharmacological Agents” (Massachusetts Institute of Technology, priority 2021, published 2023)", "key": {"[1]": {"tested_on": "CSF1R resistant progenitor-like MAC2+ microglia", "experiment": "MAC2+ microglia immunohistochemistry", "assay_type": "in vivo, mouse", "conditions": "5×FAD mice; Plx3397 diet 50 days vs control", "method": "To study how CSF1R-sensitive microglia impact neural activity in the context of AD, an amyloidosis mouse model, the 5×FAD mice—which is a most commonly used mouse model for AD, was subject to a diet containing CSF1R inhibitor Plx3397 for 50 days (FIG. 21A). The CSF1R inhibitor Plx3397 (600 ppm) was employed, which was previously shown to effectively reduce microglia in vivo. Control mice were age-matched 5×FAD litters that received a regular diet. Electrophysiological recordings were performed using linear probes. Post-recording, the recording site in the visual cortex was verified by histology (FIG. 21), and microglia reduction was evaluated by assessing IBA1+ cell numbers.\nMicroglia: Iba1 immunoreactive cells were considered microglia. Using an LSM 710 or LSM 880 with a 10× (for Iba1+ cell counts) or 40× (for morphological analysis) objective z stacks of the entire slice thickness […] with […] step size were acquired. Imaris was used for 3D rendering of images to quantify the total volume of microglia. MAC2+ cells were counted manually using Image J."}, "synaptophysin": {"tested_on": "synaptophysin", "experiment": "Synaptophysin western blot and immunohistochemistry", "assay_type": "in vivo, mouse", "conditions": "5×FAD mice", "method": "Loss of synapses and neurons are closely associated with higher neuroinflammatory response and cognitive decline in AD. Therefore, synaptic markers in the visual cortex of Plx3397 and/or GENUS treated mice were evaluated. […] Thus, whether these treatments had any effect on neuronal density by immunohistochemical analysis of neuronal marker NeuN was examined (Synaptic Systems, #266 004) positive cells (FIG. 4A).\nThe visual cortex was dissected out and snap-frozen in liquid nitrogen and stored in an −80° C. freezer until processing. Samples were homogenized using a glass homogenizer with RIPA (50 mM Tris HCl pH 8.0, 150 mM NaCl, 1% NP-40, 0.5% sodium deoxycholate, 0.1% SDS) buffer which contains protease and phosphatase inhibitor. The concentration of proteins in samples were quantified using a Bio-Rad protein assay. Equal concentrations of proteins were prepared and added with SDS—sample buffer. […] of protein was loaded onto 4-20% polyacrylamide gels and electrophoresed. Protein was transferred from acrylamide gels to nitrocellulose membranes for 12 min (Semi-dry system, Bio-Rad). Membranes were blocked using BSA (5% w/v) diluted in TBS containing 0.1% Tween-20 (TBSTw), then incubated in primary antibodies overnight at 4° C. The following day, they were washed three times with TBSTw and incubated with horseradish peroxidase-linked secondary antibodies (GE Healthcare) at room temperature for 60 min. After three further washes with TBSTw, membranes were treated with chemiluminescence substrates and the blots were visualized (Chem doc, Bio-Rad). Signal intensities were quantified using ImageJ 1.46q and normalized to values of loading control.\nThese observations led to examination of the effect of Plx3397 administration on neuronal integrity. […]\nThe brain was perfused with PBS and fixed with 4% PFA. […] Signal intensities were quantified using ImageJ 1.46q and normalized to values of loading control."}}, "data": [{"smiles": "FC(F)(F)c1ccc(CNc2ccc(Cc3c[nH]c4ncc(Cl)cc34)cn2)cn1", "note": "[Plx3397, Pexidartinib]", "values": [{"measurement": "CSF1R resistant progenitor-like MAC2+ microglia", "setting": "[1]", "result": "no difference"}, {"measurement": "synaptophysin", "setting": "synaptophysin; hippocampus, chronic Plx3397 vs control", "result": "increased"}, {"measurement": "synaptophysin signals", "setting": "synaptophysin; visual cortex, IHC, Plx3397 50 days", "result": "6524128709±177336289", "unit": "au"}, {"measurement": "synaptophysin level (western blot)", "setting": "synaptophysin; visual cortex, control 100±12.03", "result": "185.3±23.83"}]}]}
